Measurements taken from US5057494A, “Method for preventing tissue damage after an ischemic episode” (Ethicon, Inc., priority 1988, dated 1991).

Key:
gerbils = assay: Spontaneous locomotor activity after 5-min bilateral carotid occlusion (photocell activity chambers); format: in vivo, gerbil; conditions: for Motor Activity at 24 hours: Example 2, saline 3028; for Spontaneous locomotor activity: Table 1, mean of 6 gerbils
Excerpt: (§1) The present example is based on a surgical procedure that has been developed to study the effects of cerebral or brain ischemia in the unanesthetized gerbil. The methodology is based upon the surgical isolation and instrumentation of both common carotid arteries. A loop of dental floss is placed around each carotid artery and passed through a double lumen catheter material; this allows for later occlusion of the carotid arteries and their release in the unanesthetized subject. […] Behavioral changes consequent to stroke are useful and pertinent as a means of evaluation in this model of nonlethal transient ischemia Emotional lability, depression, agitation and motor and cognitive deficits are common after stroke. The psychomotor depression noted immediately after transient ischemia in this gerbil model mimics the clinical situation in humans. Spontaneous motor activity is an indicator of aroused state and is a behavior commonly measured in psychopharmacology research. Changes in locomotor activity have been shown in extensive pharmacological and toxicology studies to provide reliable, reproducible first-assessment data about neurological status. The details of this method are more fully set forth in Chandler, M.J. et al., J. Pharm. Meth. 14:137-146 (1985).
(§2) Ligatures externalized through double lumen catheters were surgically placed around both common carotid arteries of mature (50-60 gram) gerbils. After allowing recovery from surgery, conscious gerbils were subjected to a 5 minute period of bilateral carotid occlusion by tightening the ligatures. Spontaneous motor activity was then periodically monitered over seven days followed by animal sacrifice and blinded histological evaluation of brain sections. EGF (0.1 and 1.0 mg/kg) and FGF (0.1, 1.0 and 10.0 mg/kg) were given intraperitoneally in saline at one hour pre-occlusion and one, three, five and seven hours post-occlusion. Two control groups (occluded and non-occluded) received saline by the same route.
Spontaneous locomotor activity was recorded using photocell activity chambers. The chambers were two-foot circular arenas that were individually housed in sound attenuating compartments ventilated by a fan. Activity was monitored by two orthogonally placed photocell circuits. A single break of the photocell light beam by the animal's movements defined an activity count counts were monitored and recorded as a function of time. The data in Tables 1 and 2 represent activity counts.
(§3) Gerbils were treated as in Example 1, except that dosing was at 1,3,5 and 7 hours post-occlusion only.

[1] = tested on: hippocampal pyramidal cell layer; assay: Blinded histological evaluation of brain sections after 5-min bilateral carotid occlusion; format: in vivo, gerbil; conditions: for Protection of the animal's neurons (in words): as monitored by motor activity or histology; for Average Histopathology Score: Example 2, saline 4.8, scale 0-5 of Table 4
Excerpt: as §1, §2, §3

[2] = 0.01 mg/kg i.p. at 1,3,5,7 h post-occlusion only
[3] = 0.1 mg/kg i.p. at 1,3,5,7 h post-occlusion only
[4] = 1 mg/kg i.p. at 1,3,5,7 h post-occlusion only

EGF: epidermal growth factor; polypeptide growth factor (human EGF is fifty-three amino acids); source of tested material not stated
Motor Activity at 24 hours (gerbils; [2]): 1891
Motor Activity at 24 hours (gerbils; [3]): 1051
Motor Activity at 24 hours (gerbils; [4]): 715
Spontaneous locomotor activity (gerbils; 0.1 mg/kg i.p. at 1 h pre- and 1,3,5,7 h post-occlusion, 6 h after ischemia, saline post-ischemic 2366, non-ischemic 485): 1511 activity counts
Spontaneous locomotor activity (gerbils; 0.1 mg/kg i.p. at 1 h pre- and 1,3,5,7 h post-occlusion, 24 h after ischemia, saline post-ischemic 1960, non-ischemic 529): 658 activity counts
Spontaneous locomotor activity (gerbils; 0.1 mg/kg i.p. at 1 h pre- and 1,3,5,7 h post-occlusion, 48 h after ischemia, saline post-ischemic 2145, non-ischemic 613): 687 activity counts
Spontaneous locomotor activity (gerbils; 0.1 mg/kg i.p. at 1 h pre- and 1,3,5,7 h post-occlusion, 72 h after ischemia, saline post-ischemic 1011, non-ischemic 579): 715 activity counts
Spontaneous locomotor activity (gerbils; 0.1 mg/kg i.p. at 1 h pre- and 1,3,5,7 h post-occlusion, 96 h after ischemia, saline post-ischemic 895, non-ischemic 493): 626 activity counts
Spontaneous locomotor activity (gerbils; 0.1 mg/kg i.p. at 1 h pre- and 1,3,5,7 h post-occlusion, 120 h after ischemia, saline post-ischemic 486, non-ischemic 463): 511 activity counts
Spontaneous locomotor activity (gerbils; 1.0 mg/kg i.p. at 1 h pre- and 1,3,5,7 h post-occlusion, 6 h after ischemia, saline post-ischemic 2366, non-ischemic 485): 705 activity counts
Spontaneous locomotor activity (gerbils; 1.0 mg/kg i.p. at 1 h pre- and 1,3,5,7 h post-occlusion, 24 h after ischemia, saline post-ischemic 1960, non-ischemic 529): 766 activity counts
Spontaneous locomotor activity (gerbils; 1.0 mg/kg i.p. at 1 h pre- and 1,3,5,7 h post-occlusion, 48 h after ischemia, saline post-ischemic 2145, non-ischemic 613): 588 activity counts
Spontaneous locomotor activity (gerbils; 1.0 mg/kg i.p. at 1 h pre- and 1,3,5,7 h post-occlusion, 72 h after ischemia, saline post-ischemic 1011, non-ischemic 579): 463 activity counts
Spontaneous locomotor activity (gerbils; 1.0 mg/kg i.p. at 1 h pre- and 1,3,5,7 h post-occlusion, 96 h after ischemia, saline post-ischemic 895, non-ischemic 493): 445 activity counts
Spontaneous locomotor activity (gerbils; 1.0 mg/kg i.p. at 1 h pre- and 1,3,5,7 h post-occlusion, 120 h after ischemia, saline post-ischemic 486, non-ischemic 463): 314 activity counts
Protection of the animal's neurons (in words) ([1]; 0.1 mg/kg i.p. pre- and post-occlusion): modest protection
Protection of the animal's neurons (in words) ([1]; 1 mg/kg i.p. pre- and post-occlusion): almost total protection
Average Histopathology Score [1, 2]: 4.7
Average Histopathology Score [1, 3]: 1.5
Average Histopathology Score [1, 4]: 2.2
